Measurements as given in patent US4108857A, “Imidazolylmethyl methanobenzazocines” (Sterling Drug Inc., priority 1977, dated 1978).
Values after ≈ are worked out from the molar mass of the structure shown. Like-named read-outs stand apart in the source and are kept apart here.

Legend:
[1] = system: maximal electroshock seizures; test: anti-maximal electroshock seizure test in mice; type: in vivo; conditions: for ED50: Mus musculus
Experimental: The preferred species of this invention, i.e. the compounds having in free base form Formula II, are useful as analgesic agents administered orally or parenterally to humans. […] In the anti-maximal electroshock seizure test, the compounds were administered intraperitoneally or perorally 30 or 90 minutes prior to the application of 50 milliamperes of alternating current through corneal electrodes. Shock duration was 0.3 second. The criterion for anticonvulsant activity was the absence of the tonic hind leg extensor component of the seizure. In the anti-maximal pentylenetetrazol seizure test, the compounds were given intraperitoneally 30 or 90 minutes prior to the rapid intravenous injection of 50 mg. per kg. of pentylenetetrazol. Failure to display tonic hind leg extensor seizures was again the criterion for drug action. Representative results, expressed as ED50 (mg./kg.), which were obtained with my new compounds in these two tests are as follows: […]

[2] = system: maximal pentylenetetrazol seizures; test: anti-maximal pentylenetetrazol seizure test in mice; type: in vivo; conditions: for ED50: Mus musculus
pH of solution = type: physicochemical
[3] = precipitation on diluting ethyl alcohol solution with four volumes of water; type: physicochemical; conditions: 5 percent (w/v) solution in 95 percent ethyl alcohol
[4] = solubility in water or aqueous acid
[5] = solubility in 95 percent ethyl alcohol; conditions: for solubility: 95% ethanol, organic solvent or mixture
[6] = system: minimal pentylenetetrazol seizures; test: anticonvulsant test against minimal pentylenetetrazol seizures; type: in vivo, mice; conditions: Mus musculus, oral, pentylenetetrazol 32.5 mg./kg. intravenously
Experimental: In anticonvulsant studies, against minimal pentylenetetrazol seizures, wherein the dose of pentylenetetrazol was only 32.5 mg./kg. (intravenously) and the ensuing convulsions were clonic, without a tonic hind leg extensor component, the oral ED50 values were: 30 minutes post-medication, 15 ± 4 mg./kg.; 90 minutes post-medication, 37 ± 6 mg./kg.

mice [7] = test: inclined screen test in mice (skeletal muscle relaxation); type: in vivo; conditions: for ED50: Mus musculus
mice [8] = test: psychomotor activity studies in mice; type: in vivo
mice [9] = test: diuresis in mice; type: in vivo; conditions: 12.5 mg./kg. and 25 mg./kg. i.p.
monkeys = test: toxicology study in monkeys (oral, daily for 5 days); type: in vivo
Experimental: (§1) In a toxicology study, monkeys were medicated orally with 5 mg./kg. and 25 mg./kg. of the product of Example 1A each day for 5 days. […] There was considerable variability among the monkeys in the magnitude of the response. Symptoms lasted 2 to 5 hours. […] Blood SGO-T, alkaline phosphatase, and BUN were all normal.

acute toxicity, mouse = conditions: in vivo; for LD50 at 168 h: 7 day
Experimental: as §1

acute toxicity, rat = conditions: in vivo; for LD50 at 168 h: 7 day
Experimental: as §1

humans = test: analgesic use in humans; type: in vivo; conditions: for psychotomimetic effects in humans: analgesically effective doses
Experimental: For example, administered orally, the effective dosage of the racemic cis form of this compound in humans has been determined to be about 0.1 to 0.5 mg. of drug per kg. of body weight per day, at 5-25 mg. per dose; preferably about 0.2 to 0.4 mg./kg./day, for instance a total of […] at 20 mg./dose.

[10] = precipitation on gradual pH adjustment of the aqueous solution; type: physicochemical; conditions: for pH at which a precipitate formed: addition of N/10 sodium hydroxide solution to aqueous solution of hydrochloride
[11] = one entry spanning PO 30' and 90'
[12] = 5 mg./kg. orally each day for 5 days
[13] = iv, I.V., read-out: LD50 ± s.e.

CC1[C@@H]2Cc3ccccc3[C@@]1(C)CCN2CC1CCC1 (mixture of isomers) [Example 4, racemic 1,2,3,4,5,6-hexahydro-3-cyclobutylmethyl-cis-6,11-dimethyl-2,6-methano-3-benzazocine]
Anti-Maximal Electroshock ED50 ([1]; IP, 30', 30 min): 30.5 ± 5.8 mg/kg | Anti-Maximal Electroshock ED50 ([1]; IP, 90'): INACT. | Anti-Maximal Electroshock ED50 [1, 11]: inact. | Anti-Maximal Pentylenetetrazol ED50 ([2]; IP, 30', 30 min): 13.2 ± 3 mg/kg | Anti-Maximal Pentylenetetrazol ED50 ([2]; IP, 90', 90 min): 26.2 ± 8.1 mg/kg | Anti-Maximal Pentylenetetrazol ED50 ([2]; PO, 30'): INACT. | Anti-Maximal Pentylenetetrazol ED50 ([2]; PO, 90', 90 min): 25.8 ± 7 mg/kg | pH of ethyl alcohol solution diluted with four volumes of water (pH of solution; hydrochloride, 5 percent (w/v) in 95 percent ethyl alcohol, then diluted): 6.1 | precipitation on dilution with four volumes of water [3]: no precipitate formed | solubility of hydrochloride in water ([4]; hydrochloride): less than 0.25% | solubility of hydrochloride in 95 percent ethyl alcohol [5]: 5 percent (w/v)

C[C@H]1[C@H]2Cc3ccccc3[C@]1(C)CCN2CC1CC1 (relative stereo) [Example 1A, racemic 1,2,3,4,5,6-hexahydro-3-cyclopropylmethyl-cis-6,11-dimethyl-2,6-methano-3-benzazocine]
Anti-Maximal Electroshock ED50 ([1]; IP, 90'): INACT. | ED50 ([1]; 0.5 h, IP, 30'): 11.2 ± 2 mg/kg | ED50 ([1]; 0.5 h, PO, 30'): 26.2 ± 7 mg/kg | ED50 ([1]; 1.5 h, PO, 90'): 35.5 ± 3 mg/kg | ED50 ([2]; 0.5 h, IP, 30'): 2.3 ± 7 mg/kg | ED50 ([2]; 0.5 h, PO, 30'): 3.3 ± 0.8 mg/kg | ED50 ([2]; 1.5 h, IP, 90'): 5.3 ± 10 mg/kg | ED50 ([2]; 1.5 h, PO, 90'): 6.2 ± 1 mg/kg | ED50 ([6]; 0.5 h, 30 minutes post-medication): 15 ± 4 mg/kg | ED50 ([6]; 1.5 h, 90 minutes post-medication): 37 ± 6 mg/kg | ED50 (mice [7]; 1 h, oral, sixty minutes after medication, read-out: dose at which 50 percent of the mice had fallen from a 60° inclined screen): 38.2 ± 11 mg/kg | ED50 (mice [7]; ip, intraperitoneal, read-out: ED50, 60° inclined screen): 17.2 mg/kg | toxic signs at high dose (mice [8]; 128 mg./kg. p.o.): Ataxia, loss of righting reflex, and death occurred | psychomotor activity pattern (mice [8]; 8-128 mg./kg. p.o.): stimulation at lower doses and depression at high doses | diuresis (mice [9]): significant diuresis | urine produced (mice [9]): dilute urine without electrolyte concentration | symptoms (monkeys; [12]): Some ataxia with a decrease in activity | tolerability (monkeys; [12]): well tolerated | symptoms (monkeys; 25 mg./kg. orally each day for 5 days): more marked decrease in spontaneous activity along with ataxia and salivation | BUN (monkeys; oral): normal | Blood SGO-T (monkeys; oral): normal | alkaline phosphatase (monkeys; oral): normal | body weight (monkeys; oral): Some weight loss occurred | LD50 at 24 h (acute toxicity, mouse; ip, I.P.): 65 ± 7 mg/kg | LD50 at 168 h (acute toxicity, mouse; ip, I.P.): 65 ± 7 mg/kg | LD50 at 24 h (acute toxicity, mouse; iv, I.V.): 20 ± 1 mg/kg | LD50 at 168 h (acute toxicity, mouse; iv, I.V.): 20 ± 1 mg/kg | LD50 at 24 h (acute toxicity, mouse; po, P.O.): 155 ± 17 mg/kg | LD50 at 168 h (acute toxicity, mouse; po, P.O.): 155 ± 17 mg/kg | LD50 at 24 h (acute toxicity, rat; [13]): 17 ± 1 mg/kg | LD50 at 168 h (acute toxicity, rat; [13]): 17 ± 1 mg/kg | LD50 at 24 h (acute toxicity, rat; po, P.O., read-out: ALD50): 200 mg/kg | LD50 at 168 h (acute toxicity, rat; po, P.O., read-out: ALD50): 200 mg/kg | psychotomimetic effects in humans (humans): very few, if any, psychotomimetic effects | central nervous system effects in humans (humans; effective therapeutic analgesic doses): only minimal central nervous system effects | analgesic activity in humans (humans): strong analgesic | pH of 1 percent solution in dilute hydrochloric acid (pH of solution; hydrochloride, 0.42 ml. of N/2 hydrochloric acid and 0.58 ml. of water): 1.5 | precipitation on adjusting to pH 7.0 ([10]; 1 percent solution, N/10 sodium hydroxide solution, pH 7.0): no precipitate formed | precipitation on dilution with four volumes of water [3]: a precipitate formed | solubility ([4]; dilute hydrochloric acid): 10000 µg/mL (≈ 39.2 mM)

C[C@@H]1[C@H]2Cc3ccccc3[C@]1(C)CCN2CC1CC1 (relative stereo) [Example 2, racemic 1,2,3,4,5,6-hexahydro-3-cyclopropylmethyl-trans-6,11-dimethyl-2,6-methano-3-benzazocine]
solubility ([4]; water): < 2500 µg/mL | solubility [5]: < 10 mg/mL

C[C@H]1[C@H]2Cc3ccccc3[C@]1(C)CCN2CC1CC(C)(C)C1 (relative stereo) [Example 5, racemic 1,2,3,4,5,6-hexahydro-3-(3,3-dimethylcyclobutylmethyl)-cis-6,11-dimethyl-2,6-methano-3-benzazocine]
pH of 0.5 percent aqueous solution (pH of solution; hydrochloride, 0.5 percent): 6.8 | pH at which a precipitate formed [10]: 6.8 | precipitation on dilution with four volumes of water [3]: a precipitate formed | solubility ([4]; water): 5000 µg/mL (≈ 16.8 mM) | solubility [5]: 50 mg/mL (≈ 168 mM)

C[C@H]1[C@H]2Cc3ccccc3[C@]1(C)CCN2CC1CCCC1 (relative stereo) [Example 6, racemic 1,2,3,4,5,6-hexahydro-3-cyclopentylmethyl-cis-6,11-dimethyl-2,6-methano-3-benzazocine]
Anti-Maximal Electroshock ED50 ([1]; one entry spanning PO and IP, 30' and 90'): INACTIVE | ED50 ([2]; 0.5 h, IP, 30'): 11.7 ± 2 mg/kg | ED50 ([2]; 1.5 h, IP, 90'): 8 ± 3 mg/kg | Anti-Maximal Pentylenetetrazol ED50 [2, 11]: INACTIVE | pH of 1 percent aqueous solution (pH of solution; 1 percent solution (Example 26 as dihydrochloride, Example 32 as such, others as hydrochloride)): 6.2 | pH at which a precipitate formed [10]: 6.3 | solubility ([4]; water): 10000 µg/mL (≈ 35.3 mM)

C[C@H]1[C@H]2Cc3ccccc3[C@]1(C)CCN2CCc1c[nH]c2ccccc12 (relative stereo) [Example 30, racemic 1,2,3,4,5,6-hexahydro-3-[2-(3-indolyl)ethyl]-cis-6,11-dimethyl-2,6-methano-3-benzazocine]
solubility ([4]; water): < 2500 µg/mL | solubility of hydrochloride in 95 percent ethyl alcohol [5]: less than one

C[C@H]1[C@H]2Cc3ccccc3[C@]1(C)CCN2Cc1cncn1C (relative stereo) [Example 37, racemic 1,2,3,4,5,6-hexahydro-3-(1-methylimidazol-5-yl)methyl-cis-6,11-dimethyl-2,6-methano-3-benzazocine]
side-effect in the inclined screen test (mice [7]; 100 mg./kg. subcutaneously, mice): CNS stimulation | skeletal muscle relaxant activity in the inclined screen test (mice [7]; 100 mg./kg. subcutaneously, mice, 30 or 60 minutes): active | precipitation on dilution with four volumes of water [3]: precipitated | solubility ([4]; water): < 2500 µg/mL | solubility [5]: 50 mg/mL (≈ 169 mM)

CC1C2Cc3ccc(O)cc3C1(C)CCN2CC1CC1 (stereo not shown) [1,2,3,4,5,6-hexahydro-3-cyclopropylmethyl-8-hydroxy-6,11-dimethyl-2,6-methano-3-benzazocine, reference compound]
psychotomimetic effects in humans (humans): significant incidence of psychotomimetic effects | analgesic activity in humans (humans): potent analgesic

C[C@H]1[C@H]2Cc3ccccc3[C@]1(C)CCN2CC1CCCO1 (stereo partly drawn) [Example 28, 1,2,3,4,5,6-hexahydro-3-(tetrahydro-2-furylmethyl)-cis-6,11-dimethyl-2,6-methano-3-benzazocine]
solubility ([4]; water): < 2500 µg/mL | solubility [5]: 50 mg/mL (≈ 175 mM)
